Source: PMC7587356, “High-Throughput Screening for Inhibitors of the SARS-CoV-2 Protease Using a FRET-Biosensor” (Molecules, 2020)
Where a name gives a salt, the structure may show the parent alone. Read-outs that look alike come from different tables or passages of the source.

Biological target: SARS-CoV-2 3CLpro (Severe acute respiratory syndrome coronavirus 2, UniProt P0DTD1)
Experiment: biochemical
Type: biochemical
Design: Replicate_1 / Replicate_2 / mean / mean (LOPAC_screen_w_protease): unit not given here
Details: for mean (LOPAC screen with protease) / Replicate_1 (LOPAC screen with protease) / Replicate_2 (LOPAC screen with protease): primary screen at 5 µM; for inhibition at 5 µM: 4 h
[1] = LOPAC1280 primary screen with protease, 5 µM compound, mean of two replicates
[2] = LOPAC1280 primary screen with protease, 5 µM compound, replicate 1
[3] = LOPAC1280 primary screen with protease, 5 µM compound, replicate 2
[4] = sheet LOPAC_screen_w_protease, mean of two replicates
[5] = sheet LOPAC_screen_w_protease, replicate 1
[6] = sheet LOPAC_screen_w_protease, replicate 2
[7] = LOPAC1280 primary screen with protease, 5 µM compound, mean of the two replicates
[8] = sheet LOPAC_screen_w_protease, primary screen with protease, compound at 5 µM, mean of two replicates, read-out: mean
[9] = sheet LOPAC_screen_w_protease, primary screen with protease, compound at 5 µM, replicate 1, read-out: Replicate_1
[10] = sheet LOPAC_screen_w_protease, primary screen with protease, compound at 5 µM, replicate 2, read-out: Replicate_2
[11] = sheet LOPAC_screen_w_protease, primary screen with protease, 5 µM, mean of two replicates, read-out: mean
[12] = sheet LOPAC_screen_w_protease, primary screen with protease, 5 µM, replicate 1, read-out: Replicate_1
[13] = sheet LOPAC_screen_w_protease, primary screen with protease, 5 µM, replicate 2, read-out: Replicate_2
[14] = sheet LOPAC_screen_w_protease, LOPAC1280 primary screen at 5 µM, with protease, mean of the two replicates
[15] = sheet LOPAC_screen_w_protease, LOPAC1280 primary screen at 5 µM, with protease, replicate 1
[16] = sheet LOPAC_screen_w_protease, LOPAC1280 primary screen at 5 µM, with protease, replicate 2
[17] = sheet LOPAC_screen_w_protease, primary screen with protease, compound at 5 µM, mean of two replicates
[18] = sheet LOPAC_screen_w_protease, primary screen with protease, compound at 5 µM, replicate 1
[19] = sheet LOPAC_screen_w_protease, primary screen with protease, compound at 5 µM, replicate 2
[20] = sheet LOPAC_screen_w_protease, primary screen of LOPAC1280 at 5 µM with protease, mean of the two replicates, read-out: mean
[21] = sheet LOPAC_screen_w_protease, primary screen of LOPAC1280 at 5 µM with protease, replicate 1, read-out: Replicate_1
[22] = sheet LOPAC_screen_w_protease, primary screen of LOPAC1280 at 5 µM with protease, replicate 2, read-out: Replicate_2
[23] = sheet LOPAC_screen_w_protease, LOPAC1280 primary screen with protease, 5 µM compound, mean of the two replicates
[24] = sheet LOPAC_screen_w_protease, LOPAC1280 primary screen with protease, 5 µM compound, replicate 1
[25] = sheet LOPAC_screen_w_protease, LOPAC1280 primary screen with protease, 5 µM compound, replicate 2
[26] = LOPAC1280 primary screen with protease, 5 µM compound, replicate 1, read-out: Replicate_1 (LOPAC_screen_w_protease)
[27] = LOPAC1280 primary screen with protease, 5 µM compound, replicate 2, read-out: Replicate_2 (LOPAC_screen_w_protease)

## Nc1nc(Cl)nc2c1ncn2[C@@H]1O[C@H](CO)[C@@H](O)[C@H]1O [2-Chloroadenosine]
[1]
  mean (LOPAC_screen_w_protease): 1.409
[2]
  Replicate_1 (LOPAC_screen_w_protease): 1.21
[3]
  Replicate_2 (LOPAC_screen_w_protease): 1.608

## COc1cc2c(CCNC(C)=O)c[nH]c2cc1Cl [6-Chloromelatonin]
[1]
  mean (LOPAC_screen_w_protease): 1.65
[2]
  Replicate_1 (LOPAC_screen_w_protease): 0.5069
[3]
  Replicate_2 (LOPAC_screen_w_protease): 2.794

## C[C@@](Cc1ccc(O)c(O)c1)(NN)C(=O)O [S-(-)-Carbidopa]
[4]
  mean (LOPAC screen with protease): 17.4897
[5]
  Replicate_1 (LOPAC screen with protease): 19.273
[6]
  Replicate_2 (LOPAC screen with protease): 15.7065

## N=C(N)NC(CCC(=O)O)C(=O)O (stereo not drawn) [alpha-Guanidinoglutaric acid]
[7]
  mean (LOPAC_screen_w_protease): 1.992
[2]
  Replicate_1 (LOPAC_screen_w_protease): 2.352
[3]
  Replicate_2 (LOPAC_screen_w_protease): 1.632

## COc1ccc2c(c1OC)C(=O)O[C@@H]2[C@H]1c2c(cc3c(c2OC)OCO3)CCN1C.Cl [Noscapine hydrchloride]
[7]
  mean (LOPAC_screen_w_protease): 1.752
[2]
  Replicate_1 (LOPAC_screen_w_protease): 0.9869

## CN1[C@@H]2CC[C@H]1C[C@@H](OC(c1ccccc1)c1ccccc1)C2 [Benztropine mesylate]
[8]
  inhibition at 5 µM: 3.08%
[9]
  inhibition at 5 µM: 0.913%
[10]
  inhibition at 5 µM: 5.26%

## CC1CN(S(=O)(=O)c2cccc3cnccc23)CCN1.Cl.Cl (centres unmarked)
Sheet LOPAC_screen_w_protease, primary screen with protease, mean of two replicates
  mean: 2.412
Sheet LOPAC_screen_w_protease, primary screen with protease, replicate 1
  Replicate_1: 3.532
Sheet LOPAC_screen_w_protease, primary screen with protease, replicate 2
  Replicate_2: 1.292

## O=C(O)CNC(=O)C(CS)Cc1ccccc1 (racemic) [DL-Thiorphan]
[11]
  inhibition at 5 µM: 0.357%
[12]
  inhibition at 5 µM: -0.479%
[13]
  inhibition at 5 µM: 1.19%

## Cl.Clc1ccc(N2CCN(Cc3c[nH]c4ncccc34)CC2)cc1 [L-745,870 hydrochloride]
[1]
  mean (LOPAC_screen_w_protease): 1.375
[2]
  Replicate_1 (LOPAC_screen_w_protease): 2.129
[3]
  Replicate_2 (LOPAC_screen_w_protease): 0.6216

## CCCCS(=N)(=O)CCC(N)C(=O)O (racemic) [DL-Buthionine-[S,R]-sulfoximine]
[14]
  mean: 0.7813
[15]
  Replicate_1: 0.9596
[16]
  Replicate_2: 0.6029

## O=C(O)CN(CCOCCOCCN(CC(=O)O)CC(=O)O)CC(=O)O
  Replicate_1: 4.424
  Replicate_2: 0.4872
  mean: 2.456

## COc1cccc(OC)c1OCCNCC1CSc2ccccc2O1 (centres unmarked) [Benoxathian hydrochloride]
[8]
  inhibition at 5 µM: 2.7%
[9]
  inhibition at 5 µM: 1.96%
[10]
  inhibition at 5 µM: 3.44%

## O=C(O)Cc1ccc(O)c(O)c1 [3,4-Dihydroxyphenylacetic acid]
read-out: Replicate_1 (LOPAC screen with protease)
  inhibition at 5 µM: 41.7%
read-out: Replicate_2 (LOPAC screen with protease)
  inhibition at 5 µM: 44.4%
read-out: mean (LOPAC screen with protease)
  inhibition at 5 µM: 43.1%

## CNCCCN1c2ccccc2CCc2ccccc21 [Desipramine hydrochloride]
  mean (LOPAC_screen_w_protease): 1.646
read-out: Replicate_1 (LOPAC_screen_w_protease)
  inhibition at 5 µM: 1.71%
read-out: Replicate_2 (LOPAC_screen_w_protease)
  inhibition at 5 µM: 1.58%

## C[C@H]1O[C@@H](n2cc(F)c(=O)[nH]c2=O)[C@H](O)[C@@H]1O [5-fluoro-5'-deoxyuridine]
[17]
  mean: 2.678
[18]
  Replicate_1: 3.684
[19]
  Replicate_2: 1.673

## CCCCCN(CCCCC)C(=O)C(CCC(=O)O)NC(=O)c1ccc(Cl)c(Cl)c1 (centres unmarked) [Lorglumide sodium]
[20]
  inhibition at 5 µM: 3.65%
[21]
  inhibition at 5 µM: 2.9%
[22]
  inhibition at 5 µM: 4.4%

## Br.CCSC(=N)N [S-Ethylisothiourea hydrobromide]
Sheet LOPAC_screen_w_protease, LOPAC1280 at 5 µM, mean of two replicates
  mean: 1.099
Sheet LOPAC_screen_w_protease, LOPAC1280 at 5 µM, replicate 1
  Replicate_1: 2.674
Sheet LOPAC_screen_w_protease, LOPAC1280 at 5 µM, replicate 2
  Replicate_2: -0.4768

## O=C(O)C1CN(CCCP(=O)(O)O)CCN1 (racemic) [(±)-CPP]
[23]
  mean: 4.122
[24]
  Replicate_1: 5.3739
[25]
  Replicate_2: 2.869

## CN(C)CCC(c1ccccc1)c1ccccn1 (centres unmarked) [Pheniramine maleate]
[11]
  inhibition at 5 µM: -0.749%
[12]
  inhibition at 5 µM: 0.594%
[13]
  inhibition at 5 µM: -2.09%

## CCC(NC(C)C)C(O)c1ccc(O)c(O)c1.CS(=O)(=O)O (centres unmarked) [Isotharine mesylate]
[4]
  mean (LOPAC screen with protease): 8.447
[5]
  Replicate_1 (LOPAC screen with protease): 8.4794
[6]
  Replicate_2 (LOPAC screen with protease): 8.416

## C[C@]12CC[C@@H](O)C[C@@H]1CC[C@@H]1[C@@H]2CC[C@]2(C)[C@@H](C(=O)CO)CC[C@@H]12
[23]
  mean: 5.219
[24]
  Replicate_1: 2.641
[25]
  Replicate_2: 7.796

## CN1CCC(=C2c3ccccc3C=Cc3ccccc32)CC1 [Cyproheptadine hydrochloride]
[26]
  inhibition at 5 µM: 4.15%
[27]
  inhibition at 5 µM: 0.0977%
[7]
  mean (LOPAC_screen_w_protease): 2.126

## CC[C@@H]1C(=O)OC[C@@H]1Cc1cncn1C [Pilocarpine nitrate]
[11]
  inhibition at 5 µM: -0.33%
[12]
  inhibition at 5 µM: -0.127%
[13]
  inhibition at 5 µM: -0.532%

## CCN(CC)CCOC(=O)c1cc(Cl)c(N)cc1OC.Cl [SDZ-205,557 hydrochloride]
[17]
  mean: 2.714
[18]
  Replicate_1: 3.796
[19]
  Replicate_2: 1.633

## C=C(C)[C@H]1Cc2c(ccc3c2O[C@@H]2COc4cc(OC)c(OC)cc4[C@@H]2C3=O)O1 [Rotenone]
Sheet LOPAC_screen_w_protease, LOPAC1280 primary screen at 5 µM, with protease, mean of the two replicates, read-out: mean
  inhibition at 5 µM: 0.71%
Sheet LOPAC_screen_w_protease, LOPAC1280 primary screen at 5 µM, with protease, replicate 1, read-out: Replicate_1
  inhibition at 5 µM: 2.43%
Sheet LOPAC_screen_w_protease, LOPAC1280 primary screen at 5 µM, with protease, replicate 2, read-out: Replicate_2
  inhibition at 5 µM: -1.01%

## CC(CCc1ccc(O)cc1)NCCc1ccc(O)c(O)c1 (centres unmarked) [Dobutamine hydrochloride]
[26]
  inhibition at 5 µM: 2.05%
[27]
  inhibition at 5 µM: 2.06%
[7]
  mean (LOPAC_screen_w_protease): 2.053

## Cn1c(=O)c2c(nc(C=Cc3cccc(Cl)c3)n2C)n(C)c1=O [8-(3-Chlorostyryl)caffeine]
[14]
  mean: 0.7326
[15]
  Replicate_1: 1.9699
[16]
  Replicate_2: -0.5047

## O=[N+]([O-])c1cccc2c(Br)n[nH]c12 [3-Bromo-7-nitroindazole]
[7]
  mean (LOPAC_screen_w_protease): 1.829
[2]
  Replicate_1 (LOPAC_screen_w_protease): 2.045
[3]
  Replicate_2 (LOPAC_screen_w_protease): 1.613

## CC(C)[C@@]1(NC(=O)[C@@H]2C=C3c4cccc5[nH]cc(c45)C[C@H]3N(C)C2)O[C@@]2(O)[C@@H]3CCCN3C(=O)[C@H](Cc3ccccc3)N2C1=O [Ergocristine]
read-out: Replicate_1
  inhibition at 5 µM: 4.04%
read-out: Replicate_2
  inhibition at 5 µM: 2.86%
read-out: mean
  inhibition at 5 µM: 3.45%

## N.N.O=C([O-])C1(C(=O)[O-])CCC1.[Pt+2] [Carboplatin]
[17]
  mean: 2.889
[18]
  Replicate_1: 1.772
[19]
  Replicate_2: 4.006

## Nc1ccncc1 [4-Aminopyridine]
[11]
  inhibition at 5 µM: -0.189%
[12]
  inhibition at 5 µM: 0.392%
[13]
  inhibition at 5 µM: -0.771%

## O=C(Nc1cccc(C(=O)Nc2ccc(S(=O)(=O)O)c3cc(S(=O)(=O)O)cc(S(=O)(=O)O)c23)c1)Nc1cccc(C(=O)Nc2ccc(S(=O)(=O)O)c3cc(S(=O)(=O)O)cc(S(=O)(=O)O)c23)c1 [NF 023, reference compound]
[23]
  mean: 6.11
[24]
  Replicate_1: 5.845
[25]
  Replicate_2: 6.375

## CN1CC[C@]2(CCN3CCc4c(oc5ccccc45)[C@@H]3C2)N(C)C1=O [MK-912]
[1]
  mean (LOPAC_screen_w_protease): 1.637
[2]
  Replicate_1 (LOPAC_screen_w_protease): 1.746
[3]
  Replicate_2 (LOPAC_screen_w_protease): 1.529

## COc1cccc2c1[C@@H]1CN(CCCCn3c(=O)[nH]c4c(sc5ncc(-c6ccccc6)nc54)c3=O)C[C@@H]1CO2 [Fiduxosin hydrochloride]
[20]
  inhibition at 5 µM: 3.27%
[21]
  inhibition at 5 µM: 3.54%
[22]
  inhibition at 5 µM: 3.01%

## COc1ccccc1N1CCN(CCN2C(=O)CC3(CCCC3)CC2=O)CC1.Cl.Cl [BMY 7378 dihydrochloride]
[17]
  mean: 2.822
[18]
  Replicate_1: 2.1144
[19]
  Replicate_2: 3.53

## Clc1ccc(C(c2ccccc2Cl)C(Cl)Cl)cc1 (centres unmarked)
Sheet LOPAC_screen_w_protease, primary screen with protease, 5 µM, mean of two replicates
  mean: -0.2273
Sheet LOPAC_screen_w_protease, primary screen with protease, 5 µM, replicate 1
  Replicate_1: 0.8298
Sheet LOPAC_screen_w_protease, primary screen with protease, 5 µM, replicate 2
  Replicate_2: -1.2843
